Measurements reported in patent US20210045387A1, “COMPOSITIONS AND METHODS TO INHIBIT ARTHROPOD HOST-SEEKING BEHAVIOR” (The Rockefeller University, priority 2019, published 2021).

Assays:
[1] = test system: NPY-like receptors in non-human organisms; experiment: Cell-based GCaMP6s assay of related NPY-like receptors from a variety of organisms; details: HEK cells, GCaMP6s readout, FIG. 2
From the text: (§1) The six compounds were screened in vitro against the panel of all 49 known Ae. aegypti peptide receptors from both L3 and L5 genome annotations, as well as human NPY receptors. FIG. 2 illustrates the level of activation of related NPY-like receptors by Ae. aegypti NPYLR7 agonists in a variety of organisms in a cell-based assay. HEK cells were transfected with receptor cDNA, promiscuous Gα subunit, and GCaMP6s. Activation was read out as increase in GFP fluorescence and EC50 values were calculated on a 6 point dose-response curve (FIG. 2). The vertical axis of each box represents NPY-related receptors for each organism: for instance, Ae. aegypti has three receptors that were tested in this assay, while Ae. Albopictus has four. […] Albopictus. The horizontal axis indicates the compound tested. […] Compounds 6, 7, 2, 5, 1, and 9 were also tested.

[2] = test system: Female mosquitoes; experiment: Live host assay: blood-feeding on an anesthetized mouse (mark-release-recapture); assay type: in vivo, Ae. aegypti; details: 100 μM in saline fed two days prior
From the text: Females from each feeding group were separately marked with one of three different paint powders using the “shake in a bag” technique (Verhulst et al., 2013), and all three of these groups were pooled and allowed to recover together in a cage. […] Females were scored for powder color to indicate treatment condition and for the presence of fresh blood in the midgut. Similar to the results in host-seeking assays, non-blood-fed and saline-fed females consumed fresh blood at high levels. In contrast, females that had fed on sheep blood two days prior rarely consumed fresh blood. […] (Compound designations shown as circled numbers.)

[3] = test system: human NPY receptors; experiment: Cell-based GCaMP6s assay of human NPY receptor activation; details: HEK cells, GCaMP6s readout, FIG. 2
From the text: as §1

[4] = test system: Aedes albopictus mosquitoes; experiment: Miniport olfactometer host-seeking assay in Aedes albopictus; assay type: in vivo; details: two days after feeding, FIG. 5
From the text: (§2) Aedes albopictus host-seeking in a miniport olfactometer two days after feeding the indicated meals (n=6-34, 15-25 females/trial) is shown in FIG. 5. Data are plotted as median with range.

[5] = test system: Aedes albopictus NPY-like receptors; experiment: Cell-based GCaMP6s assay of Aedes albopictus NPY-like receptors; details: FIG. 2
From the text: as §1, §2

| SMILES | Activation of NPY-like receptors in non-human organisms [1] | Blood-feeding on a live host (anesthetized mouse) ([2]; 15 minutes access to mouse) | Blood-feeding on a live host, NPYLR7 mutants ([2]; NPYLR7 mutant females) | Activation of human NPY receptors [3] | Suppression of host-seeking in Aedes albopictus, miniport olfactometer [4] | Activation of Aedes albopictus NPY-like receptors in vitro [5] |
| --- | --- | --- | --- | --- | --- | --- |
| COc1ccc2c(C)nc(NC(=N)N)nc2c1 [Compound 1] | activate many of the receptors in non-human organisms | very low levels of blood-feeding on a live host | resistant to this effect | none of these compounds activates any of the human receptors |  |  |
| COc1ccc2nc(N)nc(C)c2c1 [Compound 2] | activate many of the receptors in non-human organisms |  |  | none of these compounds activates any of the human receptors |  |  |
| CCc1nc(NC(=N)N)nc2cc(C)ccc12 [Compound 5] | activate many of the receptors in non-human organisms |  |  | none of these compounds activates any of the human receptors |  |  |
| CC(C)(C)c1cnc(CSc2cnc(NC(=O)C3CCNCC3)s2)o1 [Compound 6] | activate many of the receptors in non-human organisms |  |  | none of these compounds activates any of the human receptors | suppresses host-seeking in Aedes albopictus mosquitoes | activates Aedes albopictus NPY-like receptors in vitro |
| COc1ccc(CC2c3cc(OC)c(OC)cc3CC[N+]2(C)CCC(=O)OCCCCCOC(=O)CC[N+]2(C)CCc3cc(OC)c(OC)cc3C2Cc2ccc(OC)c(OC)c2)cc1OC (centres unmarked) [Compound 9] | activate many of the receptors in non-human organisms |  |  | none of these compounds activates any of the human receptors |  |  |
